Patent US6894185B2, “Substituted chiral allosteric hemoglobin modifiers” (Allós Therapeutics, Inc., priority 1999, dated 2005)
Several values for one entry are separate records, joined by “and”; a condition that tells them apart may be missing. Equal entries are not always repeated.

What was measured:
hemoglobin = molecular target: T1, hemoglobin (Homo sapiens, UniProt P68871+P69905); assay: In vitro whole blood studies (multi-point tonometry and blood gas analysis); type: cell-based; conditions: for ΔP50 ± S.D. (P50 effector − P50control) / P50e (P50 value in the presence of the effector): Table VI, 2.5 mM Hb, 5.0 mM effector; for P50e (P50 value in the presence of the effector): single runs, DMSO stock
T1 construct: The whole blood samples were collected in heparinized tubes from healthy volunteers; from tissue; host or cells: human whole blood (heparinized) from healthy volunteers
T1 sequence (P69905 2-142 limits assumed): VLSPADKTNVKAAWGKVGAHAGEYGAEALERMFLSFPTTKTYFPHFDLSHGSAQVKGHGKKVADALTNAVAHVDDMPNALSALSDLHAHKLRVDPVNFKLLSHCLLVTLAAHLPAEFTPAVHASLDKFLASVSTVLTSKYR
T1 sequence (P68871 2-147 limits assumed): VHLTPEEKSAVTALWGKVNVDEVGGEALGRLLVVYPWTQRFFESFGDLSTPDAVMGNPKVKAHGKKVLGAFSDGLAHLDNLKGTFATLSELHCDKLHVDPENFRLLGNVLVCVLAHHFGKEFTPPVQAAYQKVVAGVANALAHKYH
Method: (§1) Structure-allosteric activity relationships were determined from the synthetic chiral effectors comparing the shift in the oxygen binding curve of Hb solutions using a Hemox-Analyzer. In vitro biological activity testing in the presence of plasma proteins was also performed on selected enantiomers and racemates (multi-point tonometry and blood gas analysis) to screen for candidates with potential clinical use. SAR studies compared the degree in shift in P50 values, i.e., the partial pressure of molecular oxygen necessary to half-saturate hemoglobin. An effector that decreases Hb oxygen affinity increases the P50 value relative to the control. Thus, the activity or potency of each analog could be expressed by the ratio P50 (effector)/P50(control). Tables and II and III summarize the p50 values obtained using human whole blood, while Tables IV and V summarize the P50 and the Hill coefficient values (n50) at half-saturation obtained using Hemox-analyzer. The slope of the log of the oxygen binding curves is known as the Hill coefficient. The Hill coefficient measures the degree of cooperativity in binding for an allosteric protein, the normal range for human blood is 2.7-3.2. Table VI presents the results from the whole blood studies given as a ΔP50 and Hill coefficient (n50) values for the enantiomers and racemates.
The whole blood samples were collected in heparinized tubes from healthy volunteers and stored over ice. The sodium salts of the compounds were prepared as described earlier. A 200 mM stock solution of the effector was prepared in DMSO. A 5.0 mM test solution was prepared from 50 μL of the 200 mM test solution and 1950 μL of whole blood. The blood samples were incubated in IL 237 tonometers (Instrumentation Laboratories, Inc. Lexington, Mass.) for approximately 10-12 min at 37° C. and equilibrated at three separate concentrations of O2 (20%, 40%, and 60%). After equilibration at each concentration of O2, a sample was removed via syringe and aspirated into a IL 1420 Automated Blood Gas Analyzer (Instrumentation Laboratories, Inc. Lexington, Mass.) and a IL 482 and IL 682 Co-oximeter (Instrumentation Laboratories, Inc. Lexington, Mass.) to determine the pH, pCO2, pO2 and the hemoglobin oxygen saturation values (sO2), respectively. The measured values for pO2 and sO2 at each oxygen saturation level were then subjected to a non-linear regression analysis using the program Scientist (Micromath, Salt Lake City, Utah) to calculate the P50 and Hill coefficient values.

[1] = molecular target: T2, purified stripped human adult hemoglobin (Homo sapiens, UniProt P68871+P69905); assay: Hemoglobin solution oxygen equilibrium studies (HEMOX-analyzer); type: biochemical; conditions: 0.5 mM effector, 100 mM bis-Tris buffer, pH 7.2
T2 construct: using purified stripped human adult hemoglobin as described previously; from tissue
T2 sequence (P69905 2-142 limits assumed): as the sequence (P69905 2-142 limits assumed) above
T2 sequence (P68871 2-147 limits assumed): as the sequence (P68871 2-147 limits assumed) above

[2] = molecular target: T2, purified stripped human adult hemoglobin; assay: as above; type: biochemical; conditions: for n50 (Hill coefficient at 50% saturation): n50 control 2.7; for P50e/P50c: ratio to P50 control with no effector (5.0 mmHg)
Method: as §1, with “Tables and II and III summarize the p50 values obtained using human whole blood, while Tables IV and V summarize the P50 and the Hill coefficient values (n50) at half-saturation obtained using Hemox-analyzer.” left out, “2.7-3.2.” for “2.7-3.2. Table VI presents the results from the whole blood studies given as a ΔP50 and Hill coefficient (n50) values for the enantiomers and racemates.”
The effectors were prepared as 10 mM stock solutions in 100 mM NaCl bis-Tris buffer, pH 7.2. After the addition of an excess of NaHCO3, the solution was warmed to 60° C. and stirred for several hours. The solutions were back titrated carefully to pH 7.2 at 25° C. prior to use. Oxygen equilibrium measurements were performed with the HEMOX-analyzer (TCS Medical products, Southampton, Pa.) using purified stripped human adult hemoglobin as described previously. 4 mL of buffer, 100 mM NaCl, 50 mM bis-Tris at pH 7.2, is added to a cuvette in the HEMOX, followed by 200 μL of the 10 mM effector stock solution. Hemoglobin is then added to achieve a final Hb concentration of […] on heme basis. Catalase (20 μg/mL) and 50 mM EDTA were added to limit oxidation of the hemes. […] The saturation of hemoglobin was determined spectrophotometrically with a dual wavelength spectrophotometer (577 nm and 586.2 nm). The solution was stirred constantly during the 45-60 min recordings. The P50 and n50 values were calculated by linear regression analysis from data points comprised between 40 and 60% oxygen saturation.

[3] = Table IV, 0.5 mM effector, pH 7.2

Row | Structure (SMILES) | melting point | Whole Blood Δp50 mm Hg (hemoglobin; Table III) | P50e (oxygen pressure at which Hb is 50% saturated with oxygen in the presence of the effector) ([1]; Table IV) | n50 (Hill coefficient at 50% saturation) [2, 3] | P50e/P50c [2, 3] | also measured
1 | CSCC[C@@H](NC(=O)C1(Oc2ccc(CC(=O)Nc3cc(C)cc(C)c3)cc2)CCCC1)C(=O)O [Compound 51, 1-[4-(((3,5-dimethylanilino)carbonyl)methyl)phenoxy]cyclopentanecarbonyl-D-methionine] | 54 to 55 °C | 27 mm Hg |  |  |  | 
2 | Cc1cc(C)cc(NC(=O)Cc2ccc(OC3(C(=O)N[C@H](Cc4c[nH]c5ccccc45)C(=O)O)CCCC3)cc2)c1 [Compound 46, 1-[4-(((3,5-dimethylanilino)carbonyl)methyl)phenoxy]cyclopentanecarbonyl-D-tryptophan] | 83 to 84 °C | 20 mm Hg |  |  |  | 
3 | Cc1cc(C)cc(NC(=O)Cc2ccc(OC3(C(=O)N[C@H](Cc4ccccc4)C(=O)O)CCCC3)cc2)c1 [Compound 44, 1-[4-(((3,5-dimethylanilino)carbonyl)methyl)phenoxy]cyclopentanecarbonyl-D-phenylalanine] | 106 to 108 °C | 38 mm Hg |  |  |  | 
4 | Cc1cc(C)cc(NC(=O)Cc2ccc(OC3(C(=O)N[C@H](C(=O)O)C(C)C)CCCC3)cc2)c1 [Compound 43, 1-[4-(((3,5-dimethylanilino)carbonyl)methyl)phenoxy]cyclopentanecarbonyl-L-valine] | 104 to 106 °C | 30 mm Hg |  |  |  | 
5 | Cc1cc(C)cc(NC(=O)Cc2ccc(OC3(C(=O)N4CCC[C@H]4C(=O)O)CCCC3)cc2)c1 [Compound 56, 1-[4-(((3,5-dimethylanilino)carbonyl)methyl)phenoxy]cyclopentanecarbonyl-L-proline] | 71 to 72 °C | 17 mm Hg |  |  |  | 
6 | Cc1cc(C)cc(NC(=O)Cc2ccc(OC3(C(=O)N[C@@H](C)C(=O)O)CCCC3)cc2)c1 [Compound 39, 1-[4-(((3,5-dimethylanilino)carbonyl)methyl)phenoxy] cyclopentanecarbonyl-L-alanine] | 117 to 118 °C | 22 mm Hg |  |  |  | 
7 | CC[C@H](C)[C@H](NC(=O)C1(Oc2ccc(CC(=O)Nc3cc(C)cc(C)c3)cc2)CCCC1)C(=O)O [Compound 53, 1-[4-(((3,5-dimethylanilino)carbonyl)methyl)phenoxy]cyclopentanecarbonyl-L-isoleucine] | 127 to 128 °C | 13 mm Hg |  |  |  | 
8 | Cc1cc(C)cc(NC(=O)Cc2ccc(OC3(C(=O)N[C@H](CC(C)C)C(=O)O)CCCC3)cc2)c1 [Compound 40, 1-[4-(((3,5-dimethylanilino)carbonyl)methyl)phenoxy]cyclopentanecarbonyl-D-leucine] | 119 to 120 °C | 40 mm Hg |  |  |  | 
9 | Cc1cc(C)cc(NC(=O)Cc2ccc(OC3(C(=O)N[C@H](C(=O)O)[C@@H](C)O)CCCC3)cc2)c1 [Compound 58, 1-[4-(((3,5-dimethylanilino)carbonyl)methyl)phenoxy]cyclopentanecarbonyl-L-threonine] | 64 to 66 °C | 13 mm Hg |  |  |  | 
10 | Cc1cc(C)cc(NC(=O)Cc2ccc(OC(C)C(=O)O)cc2)c1 (single isomer, unassigned; (+)) [(+) 18, (+)-2-[4-[[(3,5-dimethylanilino)carbonyl]methyl]phenoxy]-propionic acid] |  |  |  |  |  | P50e (oxygen pressure at which Hb is 50% saturated with oxygen in the presence of the effector) ([1]; Table V resolved enantiomers): 9.8 mmHg; ΔP50 ± S.D. (P50 effector − P50control) (hemoglobin): 20.7 ± 0.7 mmHg; P50e (P50 value in the presence of the effector) (hemoglobin): 47.4 mmHg and 48.7 mmHg; n50 (Hill coefficient at 50% saturation) ([2]; Table V resolved enantiomers, 0.5 mM effector, pH 7.2): 2.6; P50e/P50c ([2]; Table V resolved enantiomers): 2
11 | Cc1cc(C)cc(NC(=O)Cc2ccc(OC3(C(=O)O)CCCC3C)cc2)c1 (racemic) [Compound 1, 1-[4-[[(3,5-dimethylanilino)carbonyl]methyl]phenoxy]-2-methylcyclopentane carboxylic acid] |  |  | 22 mmHg | 2.3 | 4.3 | Whole Blood Δp50 mm Hg (hemoglobin; Table II): 45.4 mm Hg; ΔP50 ± S.D. (P50 effector − P50control) (hemoglobin): 40.1 ± 0.9 mmHg; P50e (P50 value in the presence of the effector) (hemoglobin): 66 mmHg and 67.2 mmHg
12 | Cc1cc(Cl)cc(NC(=O)Cc2ccc(OC3(C(=O)O)CCC(C)C3)cc2)c1 (stereo not shown) [Compound 9, 1-[4-[[(3-chloro-5-methylanilino)carbonyl]methyl]phenoxy]-3-methylcyclopentane carboxylic acid] |  |  | 14 mmHg | 2.4 | 2.8 | Whole Blood Δp50 mm Hg (hemoglobin; Table II): 15 mm Hg
13 | COCC(C)(Oc1ccc(CC(=O)Nc2cc(C)cc(C)c2)cc1)C(=O)O (stereo not shown) [Compound 10, 2-[4-[[(3,5-dimethylanilino)carbonyl]methyl]phenoxy]-3-methoxy-2-methylpropanoic acid] |  |  | 8.4 mmHg | 2.4 | 1.7 | Whole Blood Δp50 mm Hg (hemoglobin; Table II): 24 mm Hg
14 | Cc1cc(Cl)cc(NC(=O)Cc2ccc(OC3(C(=O)O)CCCC3C)cc2)c1 (stereo not shown) [Compound 8, 1-[4-[[(3-chloro-5-methylanilino)carbonyl]methyl]phenoxy]-2-methylcyclopentane carboxylic acid] |  |  | 22 mmHg | 2.4 | 4.4 | Whole Blood Δp50 mm Hg (hemoglobin; Table II): 25 mm Hg
15 | Cc1cc(C)cc(NC(=O)Cc2ccc(OC3(C(=O)O)CCCC3)cc2)c1 [JP7, 1-[4-(((3,5-dimethylanilino)carbonyl)methyl)phenoxy]cyclopentanecarboxylic acid, reference compound] |  |  | 26 mmHg | 2.4 | 5.1 | ΔP50 ± S.D. (P50 effector − P50control) (hemoglobin): 42.3 ± 4.9 mmHg; P50e (P50 value in the presence of the effector) (hemoglobin): 74.7 mmHg and 67.7 mmHg
